From patent US20220041559A1, “BENZO-AND PYRIDO-PYRAZOLES AS PROTEIN KINASE INHIBITORS” (ROTTAPHARM BIOTECH S.R.L., priority 2019, published 2022) come the findings set out here.

By IC50 is commonly meant the point on the concentration scale where inhibition reaches its midpoint. Read a low IC50 as greater potency.

T1 sequence (P06241 whole entry): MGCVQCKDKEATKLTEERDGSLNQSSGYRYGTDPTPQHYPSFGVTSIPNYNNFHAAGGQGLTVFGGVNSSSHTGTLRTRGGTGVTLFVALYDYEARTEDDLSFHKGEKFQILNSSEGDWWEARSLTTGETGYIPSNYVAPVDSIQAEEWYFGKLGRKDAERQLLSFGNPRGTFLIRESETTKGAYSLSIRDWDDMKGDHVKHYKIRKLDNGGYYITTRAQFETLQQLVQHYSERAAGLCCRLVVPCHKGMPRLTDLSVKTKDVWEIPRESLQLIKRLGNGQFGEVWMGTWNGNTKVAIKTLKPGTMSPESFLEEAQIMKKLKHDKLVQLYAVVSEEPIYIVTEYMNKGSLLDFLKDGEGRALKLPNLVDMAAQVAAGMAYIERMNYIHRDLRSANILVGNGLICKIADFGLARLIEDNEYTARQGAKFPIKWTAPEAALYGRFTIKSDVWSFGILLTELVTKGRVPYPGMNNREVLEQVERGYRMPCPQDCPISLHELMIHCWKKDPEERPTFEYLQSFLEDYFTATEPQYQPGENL

The first experiment has as its target T1, FYN (Homo sapiens, UniProt P06241).
T1 construct: purchased CarnaBioscience
The experiment can be described thus: Z'-LYTE in vitro kinase assay, FYN kinase inhibition. To be noted: Table 17. Format: biochemical. The protocol:
Assays to determine the kinase inhibitory activity of compounds were performed using an automatic liquid handling device (Microlab STAR Hamilton) and Z′-LYTE™ Kinase Assay Platform (Invitrogen), a Fluorescence Resonance Energy Transfer (FRET)-based assay platform compatible with high-throughput screening (HTS) applications. The assay employs a fluorescence-based, coupled-enzyme format and utilizes the differential sensitivity of phosphorylated and non-phosphorylated peptides to proteolytic cleavage.
Test compounds were evaluated towards active FYN (CarnaBioscience). The enzyme was incubated in a 384 low-volume microplate with a synthetic peptide-substrate, ATP and different inhibitor concentrations, ranging from 10^−10 M up to 10^−5 M final concentration. Samples representing the 0% inhibition (or total enzymatic activity) were in the presence of compound diluent (1% DMSO final) in Reaction Buffer (50 mM Hepes, 10 mM MgCl2, 1 mM EGTA, 0.01% Brij-35, pH 7.5).
A near-Km ATP concentrations for the kinase and an optimal enzyme concentration that phosphorylates 20-40% of the Z′-LYTE™ Tyr 2 Peptide in a one-hour incubation, were selected. All reagents were diluted in reaction buffer and the kinase reaction was carried out in a total volume of 10 μl, for 60 minutes at 25° C. The 0% Phosphorylation (i.e. no ATP) and 100% Phosphorylation (i.e. synthetically phosphorylated peptide supplied) Assay Controls, included in each plate, allowed to calculate the percent phosphorylation achieved in the specific reaction well. The 0% Inhibition and 0% Phosphorylation (i.e. 100% Inhibition) Controls define the dynamic range in the screen. At the end of incubation, a secondary reaction (the Development Reaction) started by adding 5 μl of Development Reagent, containing a site-specific protease that recognizes and cleaves non-phosphorylated peptides, and was interrupted after 60 minutes with 5 μl/sample of Stop Reagent. Measurement of the Coumarin (Ex. 400 nm, Em. 460 nm) and Fluorescein (Ex. 400 nm, Em. 535 nm) emission signals were performed by a fluorescence plate reader (Envision, PerkinElmer).
Results are expressed as percentage of inhibition and the IC50 values were calculated by non-linear curve fitting using GraphPad™ Prism software.
For the compound `Cc1cccc(F)c1Nc1ccc2c(NC(=O)c3ccc(C4CCN(C)CC4)cc3)n[nH]c2c1` [Compound 11, N-(6-((2-fluoro-6-methylphenyl)amino)-1H-indazol-3-yl)-4-(1-methylpiperidin-4-yl)benzamide], the “FYN kinase inhibition, result in words” value was “more active”. Turning to `CN1CCC(c2ccc(C(=O)Nc3n[nH]c4cc(Nc5c(F)ccc6c5OCO6)ccc34)cc2)CC1` [Compound 15, N-(6-((5-fluorobenzo[d][1,3]dioxol-4-yl)amino)-1H-indazol-3-yl)-4-(1-methylpiperidin-4-yl)benzamide], the “FYN kinase inhibition, result in words” value is recorded as “more active”.

The same experiment, now with this note: near-Km ATP, 60 minutes at 25° C.
Consider `CN1CC[C@@H](c2ccc(C(=O)Nc3n[nH]c4cc(Nc5ccccc5F)ccc34)cc2)[C@@H](F)C1` (single isomer, unassigned) [Compound 3], for which the IC50 was determined as 0.307 µM. The compound `CN1CC[C@@H](c2ccc(C(=O)Nc3n[nH]c4cc(Nc5ccccc5F)ccc34)cc2)[C@@H](F)C1` (single isomer, unassigned) [Compound 4] showed an IC50 of 0.203 µM.

In turn, `CN1CCCC(Oc2ccc(C(=O)Nc3n[nH]c4cc(Nc5ccccc5F)ccc34)cc2)C1` (single isomer, unassigned) [Compound 40] returned an IC50 of 0.548 µM.

Regarding `CN1CCCC(Oc2ccc(C(=O)Nc3n[nH]c4cc(Nc5ccccc5F)ccc34)cc2)C1` (single isomer, unassigned) [Compound 41], the IC50 worked out at 0.374 µM. In turn, `CCc1cccc(F)c1Nc1ccc2c(NC(=O)c3ccc(C4CCN(C)CC4)cc3)n[nH]c2c1` [Compound 2, N-(6-((2-ethyl-6-fluorophenyl)amino)-1H-indazol-3-yl)-4-(1-methylpiperidin-4-yl)benzamide] gave an IC50 of 0.315 µM. On to `O=C(Nc1n[nH]c2cc(Nc3ccccc3F)ccc12)c1ccc(C2CCN(C3COC3)CC2)cc1` [Compound 7, N-(6-((2-fluorophenyl)amino)-1H-indazol-3-yl)-4-(1-(oxetan-3-yl)piperidin-4-yl)benzamide], for which half-maximal inhibition (IC50) required 0.468 µM. As for `CN1CCC(c2ccc(C(=O)Nc3n[nH]c4cc(Nc5ccc(F)cc5Cl)ccc34)cc2)CC1` [Compound 9, N-(6-((2-chloro-4-fluorophenyl)amino)-1H-indazol-3-yl)-4-(1-methylpiperidin-4-yl)benzamide], the IC50 turned out to be 0.388 µM. `CN1CCC(c2ccc(C(=O)Nc3n[nH]c4cc(Nc5ccccc5C(F)(F)F)ccc34)cc2)CC1` [Compound 10, 4-(1-methylpiperidin-4-yl)-N-(6-((2-(trifluoromethyl)phenyl)amino)-1H-indazol-3-yl)benzamide] registered an IC50 of 0.65 µM.

Regarding `Cc1cccc(F)c1Nc1ccc2c(NC(=O)c3ccc(C4CCN(C)CC4)cc3)n[nH]c2c1` [Compound 11, N-(6-((2-fluoro-6-methylphenyl)amino)-1H-indazol-3-yl)-4-(1-methylpiperidin-4-yl)benzamide], the IC50 came to 0.047 µM. For the compound `CN1CCC(c2ccc(C(=O)Nc3n[nH]c4cc(Nc5ccc(Cl)cc5F)ccc34)cc2)CC1` [Compound 12, N-(6-((4-chloro-2-fluorophenyl)amino)-1H-indazol-3-yl)-4-(1-methylpiperidin-4-yl)benzamide], the half-inhibitory concentration (IC50) was 0.22 µM.

On to `Cc1cccc(Cl)c1Nc1ccc2c(NC(=O)c3ccc(C4CCN(C)CC4)cc3)n[nH]c2c1` [Compound 13, N-(6-((2-choro-6-methylphenyl)amino)-1H-indazol-3-yl)-4-(1-methylpiperidin-4-yl)benzamide], for which inhibition was half-maximal at 0.207 µM (IC50). Regarding `CN1CCC(c2ccc(C(=O)Nc3n[nH]c4cc(Nc5c(F)ccc6c5OCO6)ccc34)cc2)CC1` [Compound 15, N-(6-((5-fluorobenzo[d][1,3]dioxol-4-yl)amino)-1H-indazol-3-yl)-4-(1-methylpiperidin-4-yl)benzamide], the IC50 came to 0.019 µM. `CN1CCC(c2ccc(C(=O)Nc3n[nH]c4cc(Nc5ccc(F)cc5F)ccc34)cc2)CC1` [Compound 16, N-(6-((2,4-difluorophenyl)amino)-1H-indazol-3-yl)-4-(1-methylpiperidin-4-yl)benzamide] yielded a half-maximal inhibitory concentration (IC50) of 0.097 µM.

Take `Cc1ccc(Nc2ccc3c(NC(=O)c4ccc(C5CCN(C)CC5)cc4)n[nH]c3c2)cc1` [Compound 18, 4-(1-methylpiperidin-4-yl)-N-(6-(p-tolyamino)-1H-indazol-3-yl)benzamide]: the IC50 worked out at 0.105 µM.

Compound `CN1CCC(c2ccc(C(=O)Nc3n[nH]c4cc(Nc5cccc(F)c5)ccc34)cc2)CC1` [Compound 19, N-(6-((3-fluorophenyl)amino)-1H-indazol-3-yl)-4-(1-methylpiperidin-4-yl)benzamide] came in with an IC50 of 0.258 µM.

`Cc1cccc(F)c1Nc1ccc2c(NC(=O)c3ccc(C4CCN(C)CC4)cc3)n[nH]c2n1` [Compound 21, N-(6-((2-fluoro-6-methylphenyl)amino)-1H-pyrazolo[3,4-b]pyridin-3-yl)-4-(1-methylpiperidin-4-yl)benzamide]: it took 0.442 µM to reach half-maximal inhibition (IC50). In turn, `CN1CCC(c2ccc(C(=O)Nc3n[nH]c4nc(Nc5ccc(F)cc5F)ccc34)cc2)CC1` [Compound 22, N-(6-((2,4-difluorophenyl)amino)-1H-pyrazolo[3,4-b]pyridin-3-yl)-4-(1-methylpiperidin-4-yl)benzamide] yielded an IC50 of 0.283 µM. For the compound `CC(C)N1CCC(c2ccc(C(=O)Nc3n[nH]c4nc(Nc5ccccc5F)ccc34)cc2)CC1` [Compound 24, N-(6-((2-fluorophenyl)amino)-1H-pyrazolo[3,4-b]pyridin-3-yl)-4-(1-isopropylpiperidin-4-yl)benzamide], the midpoint of inhibition, the IC50, lay at 0.209 µM. On the same count and under the same terms, the figure for `CN1CCC(c2ccc(C(=O)Nc3n[nH]c4nc(Nc5ccccc5Cl)ccc34)cc2)CC1` [Compound 26, N-(6-((2-chlorophenyl)amino)-1H-pyrazolo[3,4-b]pyridin-3-yl)-4-(1-methylpiperidin-4-yl)benzamide] is 0.26 µM; for `COc1ccccc1Nc1ccc2c(NC(=O)c3ccc(C4CCN(C)CC4)cc3)n[nH]c2n1` [Compound 27, N-(6-((2-methoxyphenyl)amino)-1H-pyrazolo[3,4-b]pyridin-3-yl)-4-(1-methylpiperidin-4-yl)benzamide] it is 0.538 µM; for `COc1ccc(Nc2ccc3c(NC(=O)c4ccc(C5CCN(C)CC5)cc4)n[nH]c3n2)cc1` [Compound 31, N-(6-((4-methoxyphenyl)amino)-1H-pyrazolo[3,4-b]pyridin-3-yl)-4-(1-methylpiperidin-4-yl)benzamide] it is 0.589 µM.

In the case of `CN1CCN(c2ccc(C(=O)Nc3n[nH]c4cc(Nc5ccccc5F)ccc34)cc2)CC1` [Compound 34, N-(6-((2-fluorophenyl)amino)-1H-indazol-3-yl)-4-(4-methylpiperazin-1-yl)benzamide], the IC50 was 0.147 µM.

In turn, `CN1CCC(Oc2ccc(C(=O)Nc3n[nH]c4cc(Nc5ccccc5F)ccc34)cc2)CC1` [Compound 35, N-(6((2-fluorophenyl)amino)-1H-indazol-3-yl)-4((1-methylpiperidin-4-yl)oxy)benzamide] had an IC50 of 0.145 µM.

Turning to `O=C(Nc1n[nH]c2cc(Nc3ccccc3F)ccc12)c1ccc(N2CCOCC2)cc1` [Compound 36, N-(6((2-fluorophenyl)amino)-1H-indazol-3-yl)-4-morpholinobenzamide], inhibition was half-maximal at 0.37 µM (IC50). Consider `CN1CCCC(Oc2ccc(C(=O)Nc3n[nH]c4cc(Nc5ccccc5F)ccc34)cc2)C1` (stereo not drawn) [Compound 38, N-(6((2-fluorophenyl)amino)-1H-indazol-3-yl)-4((1-methylpiperidin-3-yl)oxy)benzamide], for which it took 0.283 µM to reach half-maximal inhibition (IC50). In turn, `CN1CCC(c2ccc(C(=O)Nc3n[nH]c4cc(Nc5ccccc5F)ccc34)cc2OCC2COC2)CC1` [Compound 42, N-(6-((2-fluorophenyl)amino)-1H-indazol-3-yl)-4-(1-methylpiperidin-4-yl)-3-(oxetan-3-ylmethoxy)benzamide] came in with an IC50 of 0.204 µM. As to `CN1CCC(c2ccc(C(=O)Nc3n[nH]c4nc(Nc5c(F)ccc6c5OCO6)ccc34)cc2)CC1` [Compound 49, N-(6((5-fluorobenzo[d][1,3]dioxol-4-yl)amino)-1H-pyrazolo[3,4-b]pyridin-3-yl)-4-(1-methylpiperidin-4-yl)benzamide], the half-maximal inhibitory concentration (IC50) is 0.831 µM. Consider `CN1CCC(c2ccc(C(=O)Nc3n[nH]c4cc(Nc5ccccc5F)ccc34)c(NC3CCOCC3)c2)CC1` [Compound 53, N-(6-((2-fluorophenyl)amino)-1H-indazol-3-yl)-4-(1-methylpiperidin-4-yl)-2-((tetrahydro-2H-pyran-4-yl)amino)benzamide], for which the IC50 amounted to 0.201 µM.
